According to patent publication US20140158116A1, “INHIBITING TRPA1 FOR THE TREATMENT OF ASTHMA” (Cubist Pharmaceuticals, Inc., priority 2012, published 2014):
Like-named read-outs stand apart in the source and are kept apart here.

Legend:
hTRPM8 = hTRPM8 (Homo sapiens, UniProt Q7Z2W7); experiment: Patch clamp selectivity, hTRPM8; type: cell-based
Description: (§1) Data for TRPA1 inhibition and the selectivity of TRPA1 inhibition was obtained by this method for the compound of Formula (Ia) and included in Table 1 and Table 2. All currents were recorded in whole-cell configuration using EPC-9 and EPC-10 amplifiers and Patchmaster software (HEKA). […] The standard pipette solution consisted of 140 mM CsAsp, 10 mM EGTA, 10 mM HEPES, 2.27 mM MgCl2, 1.91 mM CaCl2, 4 mM MgATP, and 0.1-0.3 mM Na2GTP, with pH adjusted to 7.2 with CsOH. In addition, a solution containing 145 mM CsCl, 10 mM HEPES, 10 mM EGTA and 1 mM MgCl2 (pH 7.2 adjusted with CsOH) can be used. The standard bath solution contained 150 mM NaCl, 10 mM HEPES, 10 mM glucose, 4.5 mM KCl, 1 mM EGTA, 3 mM MgCl2, with pH adjusted to 7.4 with NaOH. In some instances, 2 mM CaCl2 was added in place of EGTA and the concentration of MgCl2 was reduced to 1 mM.
(§2) Data were collected either by continuous recordings at −60 mV or by applying voltage ramps from a holding potential of 0 mV every 4 s. […] Inward and outward currents were analyzed from the ramps at −80 and 80 mV, respectively. […]
(§3) Solutions were switched using a gravity-fed continuous focal perfusion system. […] Temperatures were confirmed using a thermistor (Warner Instruments, TA-29), with temperatures at the recorded cell estimated to be within +/−2° C. of those reported. […]

hTRPA1 = hTRPA1 (Homo sapiens, UniProt O75762); experiment: hTrpA1 IC50 measured in 1% RSA (rat serum albumin); type: cell-based
[1] = test system: Ascaris suum antigen-induced pulmonary resistance; experiment: Sheep allergic asthma model, pulmonary resistance (RL) after Ascaris suum antigen; type: in vivo
Description: Compounds were tested in the sheep model of experimental asthma reported in Abraham W M, Asthma & Rhinitis, 2000: 1205-1227 incorporated herein by reference in its entirety.
The unsedated sheep were restrained in a cart in the prone position with their heads immobilized. After topical anesthesia of the nasal passages with 2% lidocaine solution, a balloon catheter was advanced through one nostril into the lower esophagus. The sheep were intubated with a cuffed endotracheal tube through the other nostril. Pleural pressure was estimated with the esophageal balloon catheter. Lateral pressure in the trachea was measured with a sidehole catheter (inner dimension, 2.5 mm) advanced through and positioned distal to the tip of the endotracheal tube. Transpulmonary pressure, the difference between tracheal and pleural pressure, was measured with a differential pressure transducer catheter system. For the measurement of pulmonary resistance (RL), the proximal end of the endotracheal tube was connected to a pneumotachograph. […]
Baseline concentration response curves to aerosol Carbachol were obtained 1 to 3 days before commencement of drug/vehicle treatment. […] Baseline values of pulmonary resistance (RL) were obtained within 30 minutes of treatment and then re-measured 30 minutes before antigen challenge. […]

[2] = Single ascending dose Phase 1A study; type: in vivo, human; details: healthy male volunteers; 6 ascending single doses
Excerpt: A randomized, double-blind, placebo-controlled, cross-over, single dose, safety, tolerability and pharmacokinetic study of 6 ascending doses of the compound of Formula (Ia) was undertaken in two cohorts of healthy male volunteers. A total of eighteen eligible healthy mail volunteers were recruited utilizing an alternating panel design. The first cohort of nine subjects (Cohort 1) was sequentially enrolled into 3 of 6 dosing periods (Dose Levels 1, 3, and 5). The remaining cohort of nine subjects (Cohort 2) was enrolled in the other 3 dosing periods (Dose Levels 2, 4, and 6). Within each dosing period, subjects were randomly assigned 2:1 to the compound of Formula (I) (n=6) or placebo (n=3). Each subject received one dose of placebo and two different doses of the compound of Formula (I) over the course of their participation in all three dosing periods. Subjects were equally randomized to one of 3 possible sequences, namely 1) placebo, active, active, 2) active, placebo, active, and 3) active, active, placebo.

hTRPV4 = hTRPV4 (Homo sapiens, UniProt Q9HBA0); experiment: Patch clamp selectivity, hTRPV4 block; type: cell-based
Description: as §1, §2, §3

dTRPA1 = dTRPA1 (Canis lupus familiaris, UniProt A0A8I3Q1Q7); experiment: Whole-cell patch clamp block of inward current through dTRPA1; type: cell-based, Dog
Description: as §1
Data were collected either by continuous recordings at −60 mV or by applying voltage ramps from a holding potential of 0 mV every 4 s. Continuous recordings were collected at 400 Hz and digitally filtered off-line at 10 Hz for presentation. Voltage ramps were applied from −100 mV to 100 mV over the course of 400 ms, and data were collected at 10 kHz and filtered at 2.9 kHz. Inward and outward currents were analyzed from the ramps at −80 and 80 mV, respectively. Liquid junction potential correction was not used.
Solutions were switched using a gravity-fed continuous focal perfusion system. To achieve rapid temperature changes, two temperature control and perfusion systems were employed simultaneously. For temperatures ≧22° C., a Warner Instruments bipolar temperature controller (TC-344B) and inline heater (SHM-8) were used. […] Temperatures were confirmed using a thermistor (Warner Instruments, TA-29), with temperatures at the recorded cell estimated to be within +/−2° C. of those reported.
IC50 of compounds was estimated by testing each compound at 5 micromolar and 500 nanomolar. […] IC50 for compounds between 500 nanomolar and 5 micromolar was similarly estimated. […]

hTRPV4, sequence (Q9HBA0 whole entry): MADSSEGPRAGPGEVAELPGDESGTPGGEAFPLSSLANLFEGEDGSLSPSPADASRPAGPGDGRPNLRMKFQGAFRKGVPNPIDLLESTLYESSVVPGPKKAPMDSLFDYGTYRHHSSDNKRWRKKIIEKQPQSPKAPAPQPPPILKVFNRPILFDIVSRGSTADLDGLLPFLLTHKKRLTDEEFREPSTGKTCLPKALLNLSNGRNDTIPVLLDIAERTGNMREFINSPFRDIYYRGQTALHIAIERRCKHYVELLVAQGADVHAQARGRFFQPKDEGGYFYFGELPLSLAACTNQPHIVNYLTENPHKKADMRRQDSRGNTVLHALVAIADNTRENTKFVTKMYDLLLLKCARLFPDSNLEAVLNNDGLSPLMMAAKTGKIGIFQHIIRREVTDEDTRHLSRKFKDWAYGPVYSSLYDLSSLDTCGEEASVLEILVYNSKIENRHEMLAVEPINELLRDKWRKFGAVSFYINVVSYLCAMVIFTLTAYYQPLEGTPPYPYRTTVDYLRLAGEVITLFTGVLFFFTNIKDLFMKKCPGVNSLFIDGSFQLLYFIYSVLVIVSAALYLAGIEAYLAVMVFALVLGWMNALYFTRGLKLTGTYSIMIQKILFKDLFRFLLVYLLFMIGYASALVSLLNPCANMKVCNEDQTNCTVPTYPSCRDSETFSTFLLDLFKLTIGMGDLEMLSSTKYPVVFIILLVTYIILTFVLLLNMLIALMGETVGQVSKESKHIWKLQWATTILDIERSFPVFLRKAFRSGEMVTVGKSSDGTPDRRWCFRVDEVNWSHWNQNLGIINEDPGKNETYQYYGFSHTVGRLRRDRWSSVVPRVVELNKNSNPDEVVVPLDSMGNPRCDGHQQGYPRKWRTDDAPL
dTRPA1, sequence (A0A8I3Q1Q7 1-1118): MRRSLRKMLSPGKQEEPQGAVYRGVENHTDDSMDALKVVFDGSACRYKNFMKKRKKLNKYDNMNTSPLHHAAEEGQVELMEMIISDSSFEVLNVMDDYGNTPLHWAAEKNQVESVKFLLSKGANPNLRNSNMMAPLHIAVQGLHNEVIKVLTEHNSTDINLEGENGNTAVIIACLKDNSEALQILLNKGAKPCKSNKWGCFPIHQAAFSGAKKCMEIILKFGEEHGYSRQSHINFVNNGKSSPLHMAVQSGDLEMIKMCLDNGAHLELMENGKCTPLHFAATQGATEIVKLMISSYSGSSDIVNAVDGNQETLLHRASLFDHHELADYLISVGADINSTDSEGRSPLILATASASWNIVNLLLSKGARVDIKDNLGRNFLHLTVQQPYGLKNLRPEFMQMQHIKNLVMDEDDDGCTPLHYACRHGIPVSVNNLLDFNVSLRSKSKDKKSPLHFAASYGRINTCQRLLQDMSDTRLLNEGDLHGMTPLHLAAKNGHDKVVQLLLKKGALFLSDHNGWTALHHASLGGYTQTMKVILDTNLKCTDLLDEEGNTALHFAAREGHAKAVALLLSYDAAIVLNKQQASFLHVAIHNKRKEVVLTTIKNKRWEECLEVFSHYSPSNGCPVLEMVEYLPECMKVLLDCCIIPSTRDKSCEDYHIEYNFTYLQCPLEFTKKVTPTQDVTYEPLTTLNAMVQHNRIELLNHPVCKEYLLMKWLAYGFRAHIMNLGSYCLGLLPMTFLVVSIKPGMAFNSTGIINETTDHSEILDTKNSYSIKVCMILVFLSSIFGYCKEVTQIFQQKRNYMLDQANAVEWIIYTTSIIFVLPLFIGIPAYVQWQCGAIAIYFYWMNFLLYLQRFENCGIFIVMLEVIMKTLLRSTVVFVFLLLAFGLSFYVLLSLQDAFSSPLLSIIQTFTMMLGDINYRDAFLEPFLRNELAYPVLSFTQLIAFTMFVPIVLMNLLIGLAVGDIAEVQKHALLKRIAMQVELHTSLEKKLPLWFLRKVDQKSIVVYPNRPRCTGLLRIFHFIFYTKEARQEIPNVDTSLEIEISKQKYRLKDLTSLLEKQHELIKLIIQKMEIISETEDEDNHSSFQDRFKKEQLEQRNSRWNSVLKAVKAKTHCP
hTRPM8, sequence (Q7Z2W7 whole entry): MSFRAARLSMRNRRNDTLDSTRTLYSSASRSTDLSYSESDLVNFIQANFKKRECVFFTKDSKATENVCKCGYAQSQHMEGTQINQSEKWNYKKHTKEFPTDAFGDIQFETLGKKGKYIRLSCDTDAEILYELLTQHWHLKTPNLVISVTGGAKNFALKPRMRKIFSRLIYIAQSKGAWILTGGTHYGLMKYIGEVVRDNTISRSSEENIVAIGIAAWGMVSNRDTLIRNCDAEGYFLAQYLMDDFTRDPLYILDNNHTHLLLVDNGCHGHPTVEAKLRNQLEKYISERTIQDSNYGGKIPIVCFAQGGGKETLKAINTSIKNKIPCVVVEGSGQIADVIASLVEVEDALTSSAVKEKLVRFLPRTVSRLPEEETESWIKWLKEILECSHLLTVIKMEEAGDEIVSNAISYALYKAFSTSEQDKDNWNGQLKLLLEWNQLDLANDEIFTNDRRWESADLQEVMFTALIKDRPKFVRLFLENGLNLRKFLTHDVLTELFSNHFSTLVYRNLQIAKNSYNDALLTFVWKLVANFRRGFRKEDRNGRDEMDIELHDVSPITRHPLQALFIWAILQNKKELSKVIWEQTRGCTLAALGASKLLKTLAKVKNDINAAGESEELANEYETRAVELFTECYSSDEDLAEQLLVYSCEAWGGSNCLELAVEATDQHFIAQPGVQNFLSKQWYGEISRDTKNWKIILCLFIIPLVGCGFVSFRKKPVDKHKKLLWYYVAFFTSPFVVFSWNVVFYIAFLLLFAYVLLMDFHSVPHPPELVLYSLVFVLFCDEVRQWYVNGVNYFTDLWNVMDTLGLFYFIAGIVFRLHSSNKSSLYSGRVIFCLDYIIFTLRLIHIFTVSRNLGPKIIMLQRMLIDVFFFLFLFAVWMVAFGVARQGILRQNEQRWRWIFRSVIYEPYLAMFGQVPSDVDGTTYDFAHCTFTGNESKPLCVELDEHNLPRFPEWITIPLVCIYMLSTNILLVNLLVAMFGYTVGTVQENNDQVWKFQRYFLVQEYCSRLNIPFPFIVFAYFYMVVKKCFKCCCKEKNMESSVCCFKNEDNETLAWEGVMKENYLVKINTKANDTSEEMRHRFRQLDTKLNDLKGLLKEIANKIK
hTRPA1, sequence (O75762 whole entry): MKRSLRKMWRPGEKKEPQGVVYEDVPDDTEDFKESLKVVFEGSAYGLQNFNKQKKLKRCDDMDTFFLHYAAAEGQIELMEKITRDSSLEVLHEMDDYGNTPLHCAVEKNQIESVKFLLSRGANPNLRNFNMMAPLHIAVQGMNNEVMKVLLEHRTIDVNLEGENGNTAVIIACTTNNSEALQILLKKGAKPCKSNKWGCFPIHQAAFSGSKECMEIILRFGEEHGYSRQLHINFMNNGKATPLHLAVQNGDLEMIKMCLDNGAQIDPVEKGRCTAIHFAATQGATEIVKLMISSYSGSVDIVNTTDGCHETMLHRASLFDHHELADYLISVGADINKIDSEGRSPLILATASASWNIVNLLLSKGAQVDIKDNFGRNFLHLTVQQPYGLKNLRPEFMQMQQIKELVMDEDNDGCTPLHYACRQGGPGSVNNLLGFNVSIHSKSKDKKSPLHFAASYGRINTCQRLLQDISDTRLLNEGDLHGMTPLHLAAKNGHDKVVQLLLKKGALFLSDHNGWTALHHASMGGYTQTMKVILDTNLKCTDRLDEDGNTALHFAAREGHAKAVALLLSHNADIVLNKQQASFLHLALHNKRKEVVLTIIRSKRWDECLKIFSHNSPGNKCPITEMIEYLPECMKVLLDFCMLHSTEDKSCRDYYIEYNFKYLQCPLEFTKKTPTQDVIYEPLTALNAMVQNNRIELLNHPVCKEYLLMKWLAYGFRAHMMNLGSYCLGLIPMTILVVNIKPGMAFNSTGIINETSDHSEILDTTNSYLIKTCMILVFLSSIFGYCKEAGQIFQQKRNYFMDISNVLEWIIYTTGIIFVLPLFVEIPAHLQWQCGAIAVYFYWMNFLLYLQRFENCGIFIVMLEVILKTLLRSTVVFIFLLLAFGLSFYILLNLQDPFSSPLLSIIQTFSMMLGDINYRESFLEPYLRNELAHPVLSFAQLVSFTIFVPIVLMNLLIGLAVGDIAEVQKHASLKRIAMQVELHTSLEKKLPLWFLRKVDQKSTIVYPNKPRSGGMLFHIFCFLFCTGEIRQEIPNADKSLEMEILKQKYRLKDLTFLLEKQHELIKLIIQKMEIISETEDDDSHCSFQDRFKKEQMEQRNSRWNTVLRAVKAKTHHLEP

Fold Selectivity Compared to TRPA1 (hTRPM8): ~200 fold | IC50 (hTRPM8; 100 micromolar Menthol, Inward (−80 mV)): 19 µM | IC50 (hTRPA1): 5.3 µM | Fold Selectivity Compared to TRPA1 (hTRPV4): ~170 fold | IC50 (hTRPV4; 2 micromolar 4α-PDD, Inward (−80 mV)): 16 µM | IC50 (dTRPA1; class symbol, read-out: Potency (IC50) Dog): ≥ 0.1 µM | IC50 (dTRPA1; dTRPA1, Dog, current activation 10 micromolar AITC, read-out: IC50 Inward current): 0.102 ± 0.02 µM
SMILES: C[C@H]1CCCN1c1ncc(-c2cccc(NC(=O)Cn3cnc4c3c(=O)n(C)c(=O)n4C)n2)cn1 [Formula (Ia)]
inhibition of late phase pulmonary resistance response ([1]; 5 mg/kg PO daily for 4 days): ~45% | inhibition of late phase pulmonary resistance response ([1]; 10 mg/kg PO daily for 4 days): approximately 75% | safety signals [2]: no safety signals seen that were attributable to the compound of Formula (Ia)
